Measurements published in US11504342B2, “Transmucosal film composition and methods of making and using the same” (Avior, Inc., priority 2018, dated 2022).

Experiment: Solubility evaluation in combinations of solvent systems
Type: physicochemical
Experimental: In addition, the solubility of nalmefene in varying concentrations was evaluated using different combinations of solvent systems. The solvent systems included combinations of polar solvents with different surface active agents. Exemplary surface active agents included: Tween 20, Tween 80, […]® 34/44, KOLLIPHOR® HS 15, SOLUTOL® NF, LABRAFIL® M2125 CS and LABRAFIL® M1944 CS.

Measured: Observation (solubility)

C=C1CC[C@@]2(O)[C@H]3Cc4ccc(O)c5c4[C@@]2(CCN3CC2CC2)[C@H]1O5 [nalmefene]
Completely Soluble,: ID 1, Ethanol:Water 75:25, nalmefene 200 mg/mL | ID 2 (second), Ethanol:Water:Propylene Glycol 82.5:12.5:5, nalmefene 200 mg/mL | ID 2, Ethanol:Water:Tween 20 75:24.5:0.5, nalmefene 250 mg/mL | ID 3, Ethanol:Water:Propylene Glycol 68:22:10, nalmefene 350 mg/mL | ID 5, Ethanol:Water:Propylene Glycol:Tween 80 70:25:4:1, nalmefene 350 mg/mL | ID 6, Ethanol:Water:Glycerine 70:20:10, nalmefene 300 mg/mL | ID 7, Ethanol:Water:Gelucire 34/14 75:20:5, nalmefene 200 mg/mL | ID 8, Ethanol:Water:Labrafil M2125 CS 80:17.5:2.5, nalmefene 200 mg/mL | ID 9, Ethanol:Water:Labrafil M1944 CS 80:17.5:2.5, nalmefene 200 mg/mL
